Values after ≈ are worked out from the molar mass of the structure shown.
Tests used:
[1] = Determination of thermodynamic solubility in phosphate buffer; assay type: physicochemical; conditions: ammonium phosphate buffer pH7.4, 290 mOsm, 37° C., nominal 1 mg/mL; for solubility at 1 h: pH 7.4, aqueous buffer, thermodynamic from solid, read-out: Solubility in PO4 buffer
Procedure: Determination of Thermodynamic Solubility in Phosphate Buffer
The thermodynamic solubility of compound was determined in Ammonium Phosphate Buffer (pH7.4, 290 mOsm). Compounds were made up at a nominal concentration of 1 mg/mL, vortexed then placed on a shaker for 1 h, 37° C. at approximately 950 rpm. Following incubation samples were transferred to eppendorf tubes and centrifuged at 15,000 g (r.c.f.) for 10 minutes at 37° C. The concentration of compound in the supernatant was determined by LC-MS/MS analysis using a calibration line prepared from a DMSO stock.

Human plasma kallikrein = Human plasma kallikrein (Homo sapiens (Human), UniProt P03952); assay: Determination of the IC50 for plasma kallikrein; assay type: biochemical; conditions: 37° C., substrate H-DPro-Phe-Arg-AFC, read-out: IC50 (human PKal)
Chain of Human plasma kallikrein (P03952 391-638): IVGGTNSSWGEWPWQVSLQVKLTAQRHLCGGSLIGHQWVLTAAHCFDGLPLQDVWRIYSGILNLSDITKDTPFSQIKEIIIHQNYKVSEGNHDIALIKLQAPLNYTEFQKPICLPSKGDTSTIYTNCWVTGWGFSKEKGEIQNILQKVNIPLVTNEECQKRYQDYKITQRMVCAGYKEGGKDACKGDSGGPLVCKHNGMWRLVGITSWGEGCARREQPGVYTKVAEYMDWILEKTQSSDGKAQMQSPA
Chain of Human plasma kallikrein (P03952 20-390 partner): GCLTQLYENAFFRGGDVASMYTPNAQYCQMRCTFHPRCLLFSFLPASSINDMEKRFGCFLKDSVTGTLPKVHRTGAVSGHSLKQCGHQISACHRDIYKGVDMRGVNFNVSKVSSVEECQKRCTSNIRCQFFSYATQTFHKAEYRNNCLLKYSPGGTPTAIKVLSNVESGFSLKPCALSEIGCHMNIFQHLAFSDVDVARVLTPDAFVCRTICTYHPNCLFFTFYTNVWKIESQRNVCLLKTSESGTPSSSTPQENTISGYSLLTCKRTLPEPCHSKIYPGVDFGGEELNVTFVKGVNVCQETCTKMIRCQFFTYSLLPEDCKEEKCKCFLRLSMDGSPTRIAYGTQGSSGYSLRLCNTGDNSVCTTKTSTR
Summary of the method: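 Residual activity (initial rate, absorbance at 410 nm) gave the IC50. Reactions at 37° C combined human plasma kallikrein, substrate H-DPro-Phe-Arg-AFC and a range of inhibitor concentrations.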

Human KLK1 = Human KLK1 (Homo sapiens (Human), UniProt P06870); assay: Determination of the IC50 for KLK1; assay type: biochemical; conditions: Human KLK1, 37° C., substrate H-DVal-Leu-Arg-AFC; Table 13
Chain of Human KLK1 (P06870 25-262): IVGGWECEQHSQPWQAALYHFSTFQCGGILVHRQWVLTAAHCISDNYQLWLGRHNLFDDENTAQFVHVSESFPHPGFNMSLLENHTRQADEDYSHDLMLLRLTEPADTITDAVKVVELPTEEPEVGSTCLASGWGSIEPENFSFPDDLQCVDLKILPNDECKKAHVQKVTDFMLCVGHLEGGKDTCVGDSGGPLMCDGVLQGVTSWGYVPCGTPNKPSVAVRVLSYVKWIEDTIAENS
Summary of the method: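 IC50 values reflect residual human KLK1 activity, read as initial rate from optical absorbance change at 410 nm. Incubations ran at 37° C with H-DVal-Leu-Arg-AFC as substrate across a compound concentration series.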

| Structure (SMILES) | solubility at 1 h [1] [µg/mL] | IC50 (Human plasma kallikrein) [µM] | IC50 (Human KLK1) [µM] | solubility in PO4 buffer ([1]; 1 h) [µg/mL] |
| --- | --- | --- | --- | --- |
| CCOc1ccc(C[C@@H](NC(=O)c2ccccc2)C(=O)N[C@@H](Cc2csc3ccccc23)C(=O)NCc2ccc(CN)cc2)cc1 [Example 153, N-[(R)-1-[(S)-1-(4-Aminomethyl-benzylcarbamoyl)-2-benzo[b]thiophen-3-yl-ethylcarbamoyl]-2-(4-ethoxy-phenyl)-ethyl]-benzamide] | 0.19 (≈ 0.299 µM) | 0.01 | > 10 | – |
| CCOc1ccc(C[C@@H](NS(=O)(=O)c2ccc(Cl)cc2)C(=O)N[C@@H](Cc2ccccc2)C(=O)NCc2ccc(CN)cc2)cc1 [Example 84, (R)-N-[(S)-1-(4-Aminomethyl-benzylcarbamoyl)-2-phenyl-ethyl]-2-(4-chloro-benzenesulfonylamino)-3-(4-ethoxy-phenyl)-propionamide] | 0.5 (≈ 0.77 µM) | 0.219 | 1.2 | – |
| CCOc1ccc(C[C@@H](NC(=O)c2ccccc2)C(=O)N[C@@H](Cc2ccccc2)C(=O)NCc2ccc(CN)c(F)c2)cc1 [Example 154, N-[(R)-1-[(S)-1-(4-Aminomethyl-3-fluoro-benzylcarbamoyl)-2-phenyl-ethylcarbamoyl]-2-(4-ethoxy-phenyl)-ethyl]-benzamide] | 3.14 (≈ 5.26 µM) | 0.021 | > 10 | – |
| CCOc1ccc(C[C@@H](NC(=O)c2sccc2Cl)C(=O)N[C@@H](Cc2ccccc2)C(=O)NCc2ccc(CN)cc2)cc1 [Example 116, 3-Chloro-thiophene-2-carboxylic acid [(R)-1-[(S)-1-(4-aminomethyl-benzylcarbamoyl)-2-phenyl-ethylcarbamoyl]-2-(4-ethoxy-phenyl)-ethyl]-amide] | 1.39 (≈ 2.24 µM) | 0.018 | 6.3 | – |
| CCOc1ccc(C[C@@H](NC(=O)c2ccccc2)C(=O)N[C@@H](Cc2ccccc2)C(=O)NCc2ccc(CN)c(Cl)c2)cc1 [Example 155, N-[(R)-1-[(S)-1-(4-Aminomethyl-3-chloro-benzylcarbamoyl)-2-phenyl-ethylcarbamoyl]-2-(4-ethoxy-phenyl)-ethyl]-benzamide] | 0.44 (≈ 0.718 µM) | 0.022 | > 10 | – |
| CCOc1ccc(C[C@@H](NC(=O)c2ccccc2)C(=O)N[C@@H](Cc2ccc(Cl)c(Cl)c2)C(=O)NCc2ccc(CN)cc2)cc1 [Example 141, N-[(R)-1-[(S)-1-(4-Aminomethyl-benzylcarbamoyl)-2-(3,4-dichloro-phenyl)-ethylcarbamoyl]-2-(4-ethoxy-phenyl)-ethyl]-benzamide] | 0.15 (≈ 0.232 µM) | 0.055 | > 10 | – |
| CCOc1ccc(C[C@@H](NC(=O)c2ccccc2)C(=O)N[C@@H](Cc2ccc(F)c(F)c2)C(=O)NCc2ccc(CN)cc2)cc1 [Example 200, N—[(R)-1-[(S)-1-(4-Aminomethyl-benzylcarbamoyl)-2-(3,4-difluoro-phenyl)-ethylcarbamoyl]-2-(4-ethoxy-phenyl)-ethyl]-benzamide] | 0.22 (≈ 0.358 µM) | 0.045 | 7.6 | – |
| CCOc1ccc(C[C@@H](NC(=O)c2ccc(OC)cc2)C(=O)N[C@@H](Cc2ccccn2)C(=O)NCc2ccc(CN)cc2)cc1 [Example 158, N-[(R)-1-[(S)-1-(4-Aminomethyl-benzylcarbamoyl)-2-pyridin-2-yl-ethylcarbamoyl]-2-(4-ethoxy-phenyl)-ethyl]-4-methoxy-benzamide] | 70.6 (≈ 116 µM) | 0.047 | > 10 | – |
| CCOc1ccc(C[C@@H](NC(=O)c2sccc2C)C(=O)N[C@@H](Cc2ccccc2)C(=O)NCc2ccc(CN)cc2)cc1 [Example 119, 3-Methyl-thiophene-2-carboxylic acid [(R)-1-[(S)-1-(4-aminomethyl-benzylcarbamoyl)-2-phenyl-ethylcarbamoyl]-2-(4-ethoxy-phenyl)-ethyl]-amide] | 1.61 (≈ 2.69 µM) | 0.015 | 6.1 | – |
| CCOc1ccc(C[C@@H](NC(=O)c2ccncc2)C(=O)N[C@@H](Cc2csc3ccccc23)C(=O)NCc2ccc(CN)cc2)cc1 [Example 178, N-[(R)-1-[(S)-1-(4-Aminomethyl-benzylcarbamoyl)-2-benzo[b]thiophen-3-yl-ethylcarbamoyl]-2-(4-ethoxy-phenyl)-ethyl]-isonicotinamide] | 1.54 (≈ 2.42 µM) | 0.042 | > 10 | – |

Now from value to compound:

| solubility at 1 h [1] [µg/mL] | IC50 (Human plasma kallikrein) [µM] | IC50 (Human KLK1) [µM] | solubility in PO4 buffer ([1]; 1 h) [µg/mL] | Structure (SMILES) |
| --- | --- | --- | --- | --- |
| 2.88 (≈ 4.83 µM) | 0.095 | > 10 | – | CCOc1ccc(C[C@@H](NC(=O)c2ccc(F)cc2)C(=O)N[C@@H](Cc2ccccc2)C(=O)NCc2ccc(CN)cc2)cc1 [Example 99, N-[(R)-1-[(S)-1-(4-Aminomethyl-benzylcarbamoyl)-2-phenyl-ethylcarbamoyl]-2-(4-ethoxy-phenyl)-ethyl]-4-fluoro-benzamide] |
| 68.9 (≈ 119 µM) | 0.025 | > 10 | – | CCOc1ccc(C[C@@H](NC(=O)c2ccccc2)C(=O)N[C@@H](Cc2cccnc2)C(=O)NCc2ccc(CN)cc2)cc1 [Example 145, N-[(R)-1-[(S)-1-(4-Aminomethyl-benzylcarbamoyl)-2-pyridin-3-yl-ethylcarbamoyl]-2-(4-ethoxy-phenyl)-ethyl]-benzamide] |
| 6.9 (≈ 11.8 µM) | 0.046 | 9.1 | – | CCOc1ccc(C[C@@H](NC(=O)c2ccsc2)C(=O)N[C@@H](Cc2ccccc2)C(=O)NCc2ccc(CN)cc2)cc1 [Example 72, Thiophene-3-carboxylic acid-[(R)-1-[(S)-1-(4-aminomethyl-benzylcarbamoyl)-2-phenyl-ethylcarbamoyl]-2-(4-ethoxy-phenyl)-ethyl]-amide] |
| 79.6 (≈ 137 µM) | 0.045 | > 10 | – | CCOc1ccc(C[C@@H](NC(=O)c2ccccc2)C(=O)N[C@@H](Cc2ccccn2)C(=O)NCc2ccc(CN)cc2)cc1 [Example 140, N-[(R)-1-[(S)-1-(4-Aminomethyl-benzylcarbamoyl)-2-pyridin-2-yl-ethylcarbamoyl]-2-(4-ethoxy-phenyl)-ethyl]-benzamide] |
| – | 0.009 | > 10 | 4.31 (≈ 7.37 µM) | CCOc1ccc(C[C@@H](NC(=O)c2ccccc2)C(=O)N[C@@H](Cc2ccsc2)C(=O)NCc2ccc(CN)cc2)cc1 [Example 151] |
| 20.4 (≈ 33.5 µM) | 0.01 | > 10 | – | CCOc1ccc(C[C@@H](NC(=O)c2ccc(OC)cc2)C(=O)N[C@@H](Cc2cccnc2)C(=O)NCc2ccc(CN)cc2)cc1 [Example 160, N-[(R)-1-[(S)-1-(4-Aminomethyl-benzylcarbamoyl)-2-pyridin-3-yl-ethylcarbamoyl]-2-(4-ethoxy-phenyl)-ethyl]-4-methoxy-benzamide] |
| 2.38 (≈ 3.88 µM) | 0.213 | > 10 | – | CCOc1ccc(C[C@@H](NC(=O)c2ccc(Cl)cc2)C(=O)N[C@@H](Cc2cccnc2)C(=O)NCc2ccc(CN)cc2)cc1 [Example 173, N-[(R)-1-[(S)-1-(4-Aminomethyl-benzylcarbamoyl)-2-pyridin-3-yl-ethylcarbamoyl]-2-(4-ethoxy-phenyl)-ethyl]-4-chloro-benzamide] |
| 5.1 (≈ 8.72 µM) | 0.025 | 9.3 | – | CCOc1ccc(C[C@@H](NC(=O)c2cccs2)C(=O)N[C@@H](Cc2ccccc2)C(=O)NCc2ccc(CN)cc2)cc1 [Example 73, Thiophene-2-carboxylic acid [(R)-1-[(S)-1-(4-aminomethyl-benzylcarbamoyl)-2-phenyl-ethylcarbamoyl]-2-(4-ethoxy-phenyl)-ethyl]-amide] |
| 0.2 (≈ 0.326 µM) | 0.09 | > 10 | – | CCOc1ccc(C[C@@H](NC(=O)c2cccc(Cl)c2)C(=O)N[C@@H](Cc2ccccc2)C(=O)NCc2ccc(CN)cc2)cc1 [Example 88, N-[(R)-1-[(S)-1-(4-Aminomethyl-benzylcarbamoyl)-2-phenyl-ethylcarbamoyl]-2-(4-ethoxy-phenyl)-ethyl]-3-chloro-benzamide] |
| 0.12 (≈ 0.205 µM) | 0.051 | > 10 | – | CCOc1ccc(C[C@@H](NC(=O)c2ccccc2)C(=O)N[C@@H](Cc2cccs2)C(=O)NCc2ccc(CN)cc2)cc1 [Example 150, N-[(R)-1-[(S)-1-(4-Aminomethyl-benzylcarbamoyl)-2-thiophen-2-yl-ethylcarbamoyl]-2-(4-ethoxy-phenyl)-ethyl]-benzamide] |
| 22.1 (≈ 38.1 µM) | 0.077 | > 10 | – | CCOc1ccc(C[C@@H](NC(=O)c2ccncc2)C(=O)N[C@@H](Cc2ccccc2)C(=O)NCc2ccc(CN)cc2)cc1 [Example 71, N-[(R)-1-[(S)-1-(4-Aminomethyl-benzylcarbamoyl)-2-phenyl-ethylcarbamoyl]-2-(4-ethoxy-phenyl)-ethyl]-isonicotinamide] |
| 11.5 (≈ 19.9 µM) | 0.126 | 7.5 | – | CCOc1ccc(C[C@@H](NC(=O)c2cccnc2)C(=O)N[C@@H](Cc2ccccc2)C(=O)NCc2ccc(CN)cc2)cc1 [Example 70, N-[(R)-1-[(S)-1-(4-Aminomethyl-benzylcarbamoyl)-2-phenyl-ethylcarbamoyl]-2-(4-ethoxy-phenyl)-ethyl]-nicotinamide] |

— patent US9234000B2, “Benzylamine derivatives as inhibitors of plasma kallikrein” (KalVista Pharmaceuticals Limited, priority 2011, dated 2016)
